Reference: patent publication US20060089325A1, “Antisense modulation of PTP1B expression” (priority 2004, published 2006)
Read-outs that look alike come from different tables or passages of the source.

Legend:
PTP1B protein = PTP1B protein levels in ZDF rats (Western blot); format: in vivo, rat; details: 25 mg/kg ip twice weekly four weeks
Procedure: (§1) ZDF/GmiCrl-fa/fa (ZDF) male rats were purchased from Charles River Laboratories (Wilmington, Mass., USA). Six week old ZDF male rats were injected intraperitoneally with oligonucleotides at a dose of 25 mg/kg two times per week for four weeks. […] Saline-injected animals also serve as controls.
PTP1B protein levels were measured by Western blot analysis.

TC-PTPase = TC-PTPase protein in HEPG2 cells (Western blot), specificity; format: cell-based, human; details: 150 nM, vs no oligo treatment
Procedure: (§2) There is a high degree of homology between PTP1B and T-cell phosphatase (TC-PTPase, PTPN2), particularly in the catalytic domain. This may present problems in design of small molecule drugs specific for PTP1B. […] HEPG2 human hepatocellular liver carcinoma cells (ATCC, Manassas Va.) are routinely maintained in minimum essential medium (Eagle) with 2 mM L-glutamine and Earle's BSS adjusted to contain 1.5 g/L sodium bicarbonate, 0.1 mM non-essential amino acids, and 1.0 mM sodium pyruvate, […]; fetal bovine serum.
(§3) Levels of PTP1B and TC-PTPase protein were measured by Western blot using mouse monoclonal antibodies to PTP1B (AB-1) and TC-PTPase (AB-1) (CalBiochem/Oncogene sciences, EMD Biosciences, Inc., San Diego Calif.), which specifically identified human target proteins and were used at 0.25 ug/ml. Results were expressed as percent of control (no oligo treatment).

[1] = rat, in vivo
[2] = tested on: Zucker diabetic fatty (ZDF) rats; assay: Fed plasma glucose in Zucker diabetic fatty (ZDF) rats; format: in vivo, rat; details: 25 mg/kg ip two times per week
Description: The leptin receptor deficient Zucker diabetic fatty (ZDF) rat is another useful model for the investigation of type 2 diabetes. Diabetes develops spontaneously in these male rats at ages 8-10 weeks, and is associated with hyperphagia, polyuria, polydipsia, and impaired weight gain, symptoms which parallel the clinical symptoms of diabetes (Phillips M S, et al., 1996, Nat Genet 13, 18-19).
as §1

PTP1B = PTP1B protein in HEPG2 cells (Western blot); format: cell-based, human; details: 150 nM, vs no oligo treatment
Procedure: as §2, §3

[3] = tested on: Zucker diabetic fatty (ZDF) rats; assay: Intraperitoneal glucose tolerance test (IPGTT) in ZDF rats; format: in vivo, rat; details: for Blood glucose after IPGTT (± SEM) / Insulin excursion after IPGTT (± SEM): 25 mg/kg ip twice weekly
Procedure: as §1
An intraperitoneal glucose tolerance test (IPGTT) was also performed. Rats received intraperitoneal injections of glucose, and the blood glucose and insulin levels are measured before the glucose challenge and at intervals over 2 hours. The blood glucose levels (in mg/dL) are shown below in Table 1:
The blood glucose levels shown in Table 1 were graphed over time and the area under the curve (AUC) is calculated. A smaller AUC for glucose (smaller blood glucose excursion after glucose challenge) indicates better glucose tolerance. Glucose excursion (AUC) for saline-treated rats was approximately 72,000; for negative control ISIS 141923-treated rats, approximately 80,000, for ISIS 113715-treated rats, approximately 60,000 and for ISIS 106425-treated rats, approximately 63,000.

[4] = tested on: Zucker diabetic fatty (ZDF) rats; assay: ZDF rats, comparison to rosiglitazone and metformin: blood glucose, HbA1c, meal tolerance, body weight; format: in vivo, rat; details: 31 day washout after 5 weeks of treatment
[5] = tested on: Zucker diabetic fatty (ZDF) rats; assay: as above; format: in vivo, rat; details: for HbA1c: end of study (5 weeks), saline ZDF 9.2%, lean 5.5
Procedure: A saline treated group of lean rats was also included in the study. Treatment with all drugs was initiated before the rats became frankly diabetic, which occurs at about 8 weeks of age. Plasma glucose levels were measured 3 and 5 weeks after treatment initiation. Body weight was measured once every week; in addition, HbA1c levels were measured at the end of the study by HPLC. A meal tolerance test was also performed after 4 weeks of treatment.
At the end of 5 weeks, some rats were sacrificed and the liver and epididymal fat pads were removed. The rest of the animals (n=4/group) were examined for changes in plasma glucose levels after cessation of treatment. Glucose measurements during the recovery phase were made 10 days and 5 weeks after stopping treatment. Tissue extracts were subjected to Western blot analysis to measure changes in PTP1B protein levels.

[6] = AST/ALT and plasma cholesterol in aged ZDF rats; details: weeks 1, 2, 3, 4 and 5
[7] = Metformin combination in ZDF rats: hypoglycemia, AST/ALT, lipids, plasma lactate; format: in vivo, rat; details: after 4 weeks of treatment
Procedure: 500 mg/kg is the maximally effective dose that can be tolerated by these rats.
There was no significant change in AST/ALT, plasma triglyceride or plasma cholesterol levels in any animal group. Because of the risk of lactic acidosis associated with metformin treatment, plasma lactate levels were measured.

[8] = tested on: Zucker Diabetic Fatty Rats; assay: Combination of ISIS 113715 and metformin in ZDF rats: plasma glucose (Table 18); format: in vivo, rat
Procedure: 500 mg/kg is the maximally effective dose that can be tolerated by these rats. Plasma glucose was measured at week 0 (before treatment) and after weeks 1, 2 and 4 of treatment.

[9] = 10 day washout after 5 weeks of treatment
[10] = Week 3 of dosing, ISIS 113715 50 mg/kg/week ip, rosiglitazone 10 mg/kg/day, metformin 800 mg/kg/day orally

ISIS 141923: CCTTCCCTGAAGGTTCCTCC (SEQ ID NO: 20), six-mismatch control of ISIS 113715, negative oligonucleotide control (chemistry not given here)
PTP1B protein levels, decrease vs saline-treated animals (PTP1B protein): 10%
Reduction of TC-PTPase levels (TC-PTPase): reduced neither PTP1B nor TC-PTPase levels
AST/ALT [1]: no significant effects
Plasma cholesterol levels [1]: no significant effects
Fed plasma glucose levels ([2]; week 0): approximately 306±59 mg/dL
Fed plasma glucose levels ([2]; week 1): ~391 ± 35 mg/dL
Fed plasma glucose levels ([2]; week 2): ~402 ± 37 mg/dL
Fed plasma glucose levels ([2]; week 3): ~411 ± 27 mg/dL
Fed plasma glucose levels ([2]; week 4): ~392 ± 11 mg/dL
Reduction of PTP1B protein levels (PTP1B): reduced neither PTP1B nor TC-PTPase levels
Blood glucose after IPGTT (± SEM) ([3]; 0 min): 330 ± 39 mg/dL
Insulin excursion after IPGTT (± SEM) ([3]; 0 min): 2.2 ± .30 ng/mL
Blood glucose after IPGTT (± SEM) ([3]; 5 min): 543 ± 43 mg/dL
Insulin excursion after IPGTT (± SEM) ([3]; 5 min): 2.3 ± .84 ng/mL
Blood glucose after IPGTT (± SEM) ([3]; 15 min): 703 ± 60 mg/dL
Insulin excursion after IPGTT (± SEM) ([3]; 15 min): 4.0 ± .22 ng/mL
Blood glucose after IPGTT (± SEM) ([3]; 30 min): 791 ± 52 mg/dL
Insulin excursion after IPGTT (± SEM) ([3]; 30 min): 4.2 ± .37 ng/mL
Blood glucose after IPGTT (± SEM) ([3]; 60 min): 705 ± 51 mg/dL
Insulin excursion after IPGTT (± SEM) ([3]; 60 min): 2.4 ± .66 ng/mL
Blood glucose after IPGTT (± SEM) ([3]; 120 min): 594 ± 28 mg/dL
Insulin excursion after IPGTT (± SEM) ([3]; 120 min): 1.7 ± .60 ng/mL
Insulin AUC after IPGTT ([3]; saline approximately 300): ~320
Glucose excursion (AUC) after IPGTT ([3]; saline approximately 72,000): approximately 80,000

CN(CCOc1ccc(CC2SC(=O)NC2=O)cc1)c1ccccn1 (centres unmarked) [Rosiglitazone]
Blood glucose (approx.) [4]: ~270 mg/dL
Blood glucose (approx.) [5, 9]: ~260 mg/dL
Blood glucose (approx.) ([5]; Pre-treatment): ~140 mg/dL
Blood glucose (approx.) [5, 10]: ~110 mg/dL
HbA1c [5]: 5.4%
Plasma cholesterol levels [6]: no significant effects

CN(C)C(=N)N=C(N)N [Metformin]
Blood glucose (approx.) [4]: ~330 mg/dL
Body weight after treatment ([5]; 5 weeks): remained unchanged
Blood glucose (approx.) [5, 9]: ~305 mg/dL
Blood glucose (approx.) ([5]; Pre-treatment): ~135 mg/dL
Blood glucose (approx.) [5, 10]: ~180 mg/dL
HbA1c [5]: 6.1%
Plasma lactate levels [7]: dose-dependent increase in lactate
Effect on blood glucose over the study (in words) ([8]; ISIS 113715 12.5 mg/kg ip twice a week, metformin 100, 300 or 500 mg/kg per day, four weeks): lost over time
Plasma glucose mg/dL ± SEM ([8]; metformin alone 100 mg/kg per day oral gavage, Week 0 (before treatment)): 256 ± 29 mg/dL
Plasma glucose mg/dL ± SEM ([8]; metformin alone 100 mg/kg per day oral gavage, Week 1): 428 ± 20 mg/dL
Plasma glucose mg/dL ± SEM ([8]; metformin alone 100 mg/kg per day oral gavage, Week 2): 504 ± 20 mg/dL
Plasma glucose mg/dL ± SEM ([8]; metformin alone 100 mg/kg per day oral gavage, Week 3): 494 ± 18 mg/dL
Plasma glucose mg/dL ± SEM ([8]; metformin alone 100 mg/kg per day oral gavage, Week 4): 393 ± 71 mg/dL
Plasma glucose mg/dL ± SEM ([8]; metformin alone 300 mg/kg per day oral gavage, Week 0 (before treatment)): 251 ± 27 mg/dL
Plasma glucose mg/dL ± SEM ([8]; metformin alone 300 mg/kg per day oral gavage, Week 1): 323 ± 33 mg/dL
Plasma glucose mg/dL ± SEM ([8]; metformin alone 300 mg/kg per day oral gavage, Week 2): 415 ± 29 mg/dL
Plasma glucose mg/dL ± SEM ([8]; metformin alone 300 mg/kg per day oral gavage, Week 3): 449 ± 11 mg/dL
Plasma glucose mg/dL ± SEM ([8]; metformin alone 300 mg/kg per day oral gavage, Week 4): 448 ± 42 mg/dL
Plasma glucose mg/dL ± SEM ([8]; metformin alone 500 mg/kg per day oral gavage, Week 0 (before treatment)): 252 ± 28 mg/dL
Plasma glucose mg/dL ± SEM ([8]; metformin alone 500 mg/kg per day oral gavage, Week 1): 244 ± 56 mg/dL
Plasma glucose mg/dL ± SEM ([8]; metformin alone 500 mg/kg per day oral gavage, Week 2): 344 ± 59 mg/dL
Plasma glucose mg/dL ± SEM ([8]; metformin alone 500 mg/kg per day oral gavage, Week 3): 374 ± 53 mg/dL
Plasma glucose mg/dL ± SEM ([8]; metformin alone 500 mg/kg per day oral gavage, Week 4): 443 ± 35 mg/dL
